Data from US10870647B2, “Imidazopyridine derivative, method for preparing same, and pharmaceutical composition containing same as active ingredient for preventing or treating cancer” (DAEGU-GYEONGBUK MEDICAL INNOVATION FOUNDATION, priority 2016, dated 2020).

Columns and labels:
Assay in all cases: Kinase selectivity, scanMAX Kinase assay panel (DiscoverX), % control at 1 uM
Assay type in all cases: binding
[1] = biological target: T1, scanMAX Kinase assay panel (Homo sapiens, UniProt P35916); conditions: FLT4; 1 uM; read-out: Percent Control (%)
T1 construct: purchased DiscoverX
Procedure, shortened: (§1)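 Each kinase was first exposed to the test compound at 1 uM in DMSO. Signal was then normalised to positive and negative controls to give % control. Finally, any enzyme showing <35% control was judged inhibited.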

[2] = biological target: T2, scanMAX Kinase assay panel (Homo sapiens, UniProt Q12852); conditions: DLK; 1 uM; read-out: Percent Control (%)
T2 construct: purchased DiscoverX
T2 sequence (Q12852 1-859): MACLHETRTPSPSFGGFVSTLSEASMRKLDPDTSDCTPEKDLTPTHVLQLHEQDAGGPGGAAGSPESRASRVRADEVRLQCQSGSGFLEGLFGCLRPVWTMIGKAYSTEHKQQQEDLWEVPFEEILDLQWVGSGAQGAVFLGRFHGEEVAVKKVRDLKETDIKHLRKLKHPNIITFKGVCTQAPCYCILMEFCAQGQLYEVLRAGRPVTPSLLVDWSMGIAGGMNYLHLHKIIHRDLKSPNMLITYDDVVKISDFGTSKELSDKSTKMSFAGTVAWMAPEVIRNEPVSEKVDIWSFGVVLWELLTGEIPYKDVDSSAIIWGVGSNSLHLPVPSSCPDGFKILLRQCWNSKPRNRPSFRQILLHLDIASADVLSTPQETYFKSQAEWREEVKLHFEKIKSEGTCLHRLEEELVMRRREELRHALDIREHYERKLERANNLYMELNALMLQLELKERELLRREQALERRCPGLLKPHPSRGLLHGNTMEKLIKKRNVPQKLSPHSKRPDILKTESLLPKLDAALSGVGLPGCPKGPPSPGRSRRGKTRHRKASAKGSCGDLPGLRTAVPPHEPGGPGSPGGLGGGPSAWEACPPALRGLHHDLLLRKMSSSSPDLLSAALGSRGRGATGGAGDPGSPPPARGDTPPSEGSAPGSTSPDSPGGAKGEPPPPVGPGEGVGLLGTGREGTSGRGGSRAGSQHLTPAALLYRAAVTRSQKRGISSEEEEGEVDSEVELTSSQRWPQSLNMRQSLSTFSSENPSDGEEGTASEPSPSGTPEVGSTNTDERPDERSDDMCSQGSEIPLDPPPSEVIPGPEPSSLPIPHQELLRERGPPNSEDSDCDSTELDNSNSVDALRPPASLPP
Procedure, shortened: as §1

[3] = biological target: T3, scanMAX Kinase assay panel (Homo sapiens, UniProt P10721, D816H); conditions: KIT (D816H); 1 uM; read-out: Percent Control (%)
T3 construct: purchased DiscoverX
Procedure, shortened: as §1

[4] = biological target: T4, scanMAX Kinase assay panel (Homo sapiens, UniProt Q9BX84); conditions: TRPM6; 1 uM; read-out: Percent Control (%)
T4 construct: purchased DiscoverX
Procedure, shortened: as §1

[5] = biological target: T5, scanMAX Kinase assay panel (Homo sapiens, UniProt Q9UHD2); conditions: TBK1; 1 uM; read-out: Percent Control (%)
T5 construct: purchased DiscoverX
T5 sequence (Q9UHD2 1-729): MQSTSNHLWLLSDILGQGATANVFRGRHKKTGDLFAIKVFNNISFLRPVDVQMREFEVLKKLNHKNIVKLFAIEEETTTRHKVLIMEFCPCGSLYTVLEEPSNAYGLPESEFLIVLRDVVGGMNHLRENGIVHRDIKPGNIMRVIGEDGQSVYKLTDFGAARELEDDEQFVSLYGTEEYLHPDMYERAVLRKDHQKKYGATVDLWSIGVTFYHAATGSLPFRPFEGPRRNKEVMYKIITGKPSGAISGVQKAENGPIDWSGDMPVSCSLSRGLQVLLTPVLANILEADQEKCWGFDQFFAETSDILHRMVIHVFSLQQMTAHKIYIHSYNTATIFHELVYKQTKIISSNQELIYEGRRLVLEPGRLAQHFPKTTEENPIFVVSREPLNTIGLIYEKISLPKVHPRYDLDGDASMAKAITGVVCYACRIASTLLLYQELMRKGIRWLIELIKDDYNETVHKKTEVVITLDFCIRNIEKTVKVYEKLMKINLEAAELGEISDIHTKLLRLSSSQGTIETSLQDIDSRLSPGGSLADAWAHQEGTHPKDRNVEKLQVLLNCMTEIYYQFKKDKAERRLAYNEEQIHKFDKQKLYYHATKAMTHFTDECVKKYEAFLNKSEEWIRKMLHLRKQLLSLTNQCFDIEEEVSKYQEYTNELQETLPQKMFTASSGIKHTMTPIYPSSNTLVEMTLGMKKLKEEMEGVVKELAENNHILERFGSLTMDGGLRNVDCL
Procedure, shortened: as §1

T3 sequence (P10721 26-976 D816H): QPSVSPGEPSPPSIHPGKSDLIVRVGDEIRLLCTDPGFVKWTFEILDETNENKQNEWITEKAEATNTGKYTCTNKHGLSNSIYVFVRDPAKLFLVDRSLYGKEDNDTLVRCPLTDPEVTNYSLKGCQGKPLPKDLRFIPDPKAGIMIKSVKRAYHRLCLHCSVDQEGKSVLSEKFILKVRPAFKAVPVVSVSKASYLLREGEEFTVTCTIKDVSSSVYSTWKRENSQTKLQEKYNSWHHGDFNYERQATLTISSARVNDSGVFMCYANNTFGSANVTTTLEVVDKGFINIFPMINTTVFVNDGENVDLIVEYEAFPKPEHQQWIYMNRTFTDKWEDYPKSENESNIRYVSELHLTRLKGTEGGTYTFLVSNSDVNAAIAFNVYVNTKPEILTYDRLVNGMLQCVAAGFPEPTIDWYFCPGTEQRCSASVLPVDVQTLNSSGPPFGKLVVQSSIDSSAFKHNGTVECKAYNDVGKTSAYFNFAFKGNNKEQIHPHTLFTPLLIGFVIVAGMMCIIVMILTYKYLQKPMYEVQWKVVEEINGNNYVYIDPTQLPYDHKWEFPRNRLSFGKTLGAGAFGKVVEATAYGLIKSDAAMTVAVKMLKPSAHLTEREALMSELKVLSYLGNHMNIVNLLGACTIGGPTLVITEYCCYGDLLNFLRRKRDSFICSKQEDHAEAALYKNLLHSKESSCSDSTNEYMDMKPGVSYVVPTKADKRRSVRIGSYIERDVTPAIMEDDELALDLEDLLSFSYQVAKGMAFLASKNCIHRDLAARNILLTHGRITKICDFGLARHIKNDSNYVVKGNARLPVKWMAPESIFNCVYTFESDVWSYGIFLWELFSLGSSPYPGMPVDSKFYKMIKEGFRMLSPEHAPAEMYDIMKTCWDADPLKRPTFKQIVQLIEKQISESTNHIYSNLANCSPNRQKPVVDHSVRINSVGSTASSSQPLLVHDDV
T4 sequence (Q9BX84 whole entry): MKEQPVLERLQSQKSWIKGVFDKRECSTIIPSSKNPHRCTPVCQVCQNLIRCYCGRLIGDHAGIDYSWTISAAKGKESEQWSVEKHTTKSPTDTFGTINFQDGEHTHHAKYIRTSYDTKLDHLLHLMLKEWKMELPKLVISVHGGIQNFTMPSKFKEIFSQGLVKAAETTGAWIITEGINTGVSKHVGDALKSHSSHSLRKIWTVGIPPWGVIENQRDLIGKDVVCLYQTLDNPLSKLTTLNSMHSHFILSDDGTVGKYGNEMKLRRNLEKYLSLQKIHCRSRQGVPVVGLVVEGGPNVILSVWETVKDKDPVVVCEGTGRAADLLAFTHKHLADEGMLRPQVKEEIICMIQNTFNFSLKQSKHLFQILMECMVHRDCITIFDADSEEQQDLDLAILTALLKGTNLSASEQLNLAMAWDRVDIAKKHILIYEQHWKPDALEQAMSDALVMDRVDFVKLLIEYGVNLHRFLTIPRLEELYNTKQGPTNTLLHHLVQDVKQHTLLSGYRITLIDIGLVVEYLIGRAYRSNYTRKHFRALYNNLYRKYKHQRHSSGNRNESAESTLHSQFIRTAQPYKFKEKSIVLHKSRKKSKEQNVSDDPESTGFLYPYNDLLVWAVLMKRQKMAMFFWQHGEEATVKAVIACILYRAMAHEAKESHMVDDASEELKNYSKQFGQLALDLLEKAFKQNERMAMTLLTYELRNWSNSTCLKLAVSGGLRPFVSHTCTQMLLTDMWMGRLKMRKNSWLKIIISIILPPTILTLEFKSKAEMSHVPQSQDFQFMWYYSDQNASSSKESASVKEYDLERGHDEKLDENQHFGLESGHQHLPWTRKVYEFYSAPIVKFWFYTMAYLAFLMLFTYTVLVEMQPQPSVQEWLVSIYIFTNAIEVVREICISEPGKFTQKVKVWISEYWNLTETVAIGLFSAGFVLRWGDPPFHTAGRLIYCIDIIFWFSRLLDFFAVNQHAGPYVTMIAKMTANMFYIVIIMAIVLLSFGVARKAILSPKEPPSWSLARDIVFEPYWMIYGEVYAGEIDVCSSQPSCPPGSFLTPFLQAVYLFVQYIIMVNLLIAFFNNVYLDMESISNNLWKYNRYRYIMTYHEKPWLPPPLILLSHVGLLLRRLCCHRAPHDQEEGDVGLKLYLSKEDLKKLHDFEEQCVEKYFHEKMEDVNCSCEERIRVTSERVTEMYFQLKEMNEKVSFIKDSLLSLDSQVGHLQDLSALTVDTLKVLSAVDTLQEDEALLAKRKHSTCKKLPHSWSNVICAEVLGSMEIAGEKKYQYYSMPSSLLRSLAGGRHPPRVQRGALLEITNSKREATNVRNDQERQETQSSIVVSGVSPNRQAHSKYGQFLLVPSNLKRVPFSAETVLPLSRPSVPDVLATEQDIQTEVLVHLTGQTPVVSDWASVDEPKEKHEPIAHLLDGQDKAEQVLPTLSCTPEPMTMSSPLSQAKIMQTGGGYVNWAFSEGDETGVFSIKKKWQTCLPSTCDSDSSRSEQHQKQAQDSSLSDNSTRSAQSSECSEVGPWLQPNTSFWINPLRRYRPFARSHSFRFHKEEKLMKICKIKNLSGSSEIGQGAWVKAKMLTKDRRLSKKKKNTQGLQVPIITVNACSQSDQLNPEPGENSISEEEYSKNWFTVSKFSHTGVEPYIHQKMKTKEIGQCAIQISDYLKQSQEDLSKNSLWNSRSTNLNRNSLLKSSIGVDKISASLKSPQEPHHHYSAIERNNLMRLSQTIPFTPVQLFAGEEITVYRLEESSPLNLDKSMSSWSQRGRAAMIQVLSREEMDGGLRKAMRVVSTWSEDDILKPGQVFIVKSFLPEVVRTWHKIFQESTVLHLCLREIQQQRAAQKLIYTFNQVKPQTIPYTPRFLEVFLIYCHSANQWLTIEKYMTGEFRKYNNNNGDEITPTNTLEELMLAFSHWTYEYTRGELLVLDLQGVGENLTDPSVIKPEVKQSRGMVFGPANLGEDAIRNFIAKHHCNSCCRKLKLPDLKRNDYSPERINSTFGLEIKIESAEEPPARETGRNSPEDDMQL
T1 sequence (P35916 25-1363): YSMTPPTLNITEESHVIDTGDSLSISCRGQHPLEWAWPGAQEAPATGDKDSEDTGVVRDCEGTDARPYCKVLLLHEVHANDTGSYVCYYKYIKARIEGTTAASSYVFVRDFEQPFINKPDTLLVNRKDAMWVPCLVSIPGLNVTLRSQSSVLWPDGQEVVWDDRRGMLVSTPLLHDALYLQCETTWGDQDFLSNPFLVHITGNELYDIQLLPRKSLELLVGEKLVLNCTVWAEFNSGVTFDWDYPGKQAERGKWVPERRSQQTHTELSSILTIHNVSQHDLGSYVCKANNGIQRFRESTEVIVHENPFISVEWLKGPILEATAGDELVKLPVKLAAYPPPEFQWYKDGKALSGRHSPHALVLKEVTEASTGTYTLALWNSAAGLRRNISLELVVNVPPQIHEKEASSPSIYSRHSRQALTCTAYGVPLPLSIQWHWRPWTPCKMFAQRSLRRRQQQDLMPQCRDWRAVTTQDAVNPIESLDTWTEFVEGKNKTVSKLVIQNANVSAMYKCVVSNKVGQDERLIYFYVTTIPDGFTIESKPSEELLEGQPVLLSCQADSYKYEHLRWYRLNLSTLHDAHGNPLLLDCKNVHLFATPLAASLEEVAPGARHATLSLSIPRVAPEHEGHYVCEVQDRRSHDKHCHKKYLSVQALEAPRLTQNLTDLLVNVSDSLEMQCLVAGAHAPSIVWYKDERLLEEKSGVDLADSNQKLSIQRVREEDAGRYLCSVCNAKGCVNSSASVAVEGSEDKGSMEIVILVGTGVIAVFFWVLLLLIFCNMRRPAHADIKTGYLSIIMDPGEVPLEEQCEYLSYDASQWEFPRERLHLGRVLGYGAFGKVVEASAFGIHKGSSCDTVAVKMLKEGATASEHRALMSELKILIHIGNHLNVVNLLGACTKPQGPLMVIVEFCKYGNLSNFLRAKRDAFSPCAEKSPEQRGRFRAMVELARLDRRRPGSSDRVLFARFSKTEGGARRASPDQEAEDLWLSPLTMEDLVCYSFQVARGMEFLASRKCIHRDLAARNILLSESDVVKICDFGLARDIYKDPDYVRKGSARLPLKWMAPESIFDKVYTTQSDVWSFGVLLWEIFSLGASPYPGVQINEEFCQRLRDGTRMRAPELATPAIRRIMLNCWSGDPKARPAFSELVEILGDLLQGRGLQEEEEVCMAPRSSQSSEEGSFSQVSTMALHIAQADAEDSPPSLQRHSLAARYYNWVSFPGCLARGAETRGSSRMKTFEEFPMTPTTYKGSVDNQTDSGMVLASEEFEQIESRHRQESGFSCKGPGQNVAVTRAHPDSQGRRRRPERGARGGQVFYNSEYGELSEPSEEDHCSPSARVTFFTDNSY

Row | SMILES | remaining binding at 1 µM [1] [%] | remaining binding at 1 µM [2] [%] | remaining binding at 1 µM [3] [%] | remaining binding at 1 µM [4] [%] | remaining binding at 1 µM [5] [%]
1 | Cc1ccc(C(=O)Nc2ccc(CN3CCN(C)CC3)c(C(F)(F)F)c2)cc1C#Cc1cnc2c(Nc3cnn(C)c3)cccn12 [Example 1, 4-methyl-3-((8-((1-methyl-1H-pyrazol-4-yl)amino)imidazo[1,2-a]pyridin-3-yl)ethynyl)-N-(4-((4-methylpiperazin-1-yl)methyl)-3-(trifluoromethyl)phenyl)benzamide] | 1 | 29 | 7 | 100 | 68
2 | Cc1cn(-c2cc(NC(=O)c3ccc(C)c(C#Cc4cnc5c(Nc6cnn(C)c6)cccn45)c3)cc(C(F)(F)F)c2)cn1 [Example 12, 4-methyl-N-(3-(4-methyl-1H-imidazol-1-yl)-5-(trifluoromethyl)phenyl)-3-((8-((1-methyl-1H-pyrazol-4-yl)amino)imidazo[1,2-a]pyridin-3-yl)ethynyl)benzamide] | 6 | 100 | 70 | 87 | 84
3 | Cc1ccc(NC(=O)C2(C(=O)Nc3ccc(F)cc3)CC2)cc1C#Cc1cnc2c(Nc3cnn(C(C)C)c3)cccn12 [Example 78] | 26 | 100 | 63 | 87 | 100
